Here are results for twelve compounds from patent US20250324973A1, “Pest Control Composition and Control Method” (priority 2021, published 2025).

Holding throughout (format): in vivo
The test system of test [1] is white-backed planthopper, susceptible line or reduced susceptible line. Kind of test: Test Example 21: spray on rice seedlings, mortality rate. The conditions noted are these: white-backed planthopper 3rd-instar larvae on rice; 0.05-200 ppm; six days. How it is done:
Natural pyrethrin or MX is formulated according to the method described in the Formulation Example 1. Each of the above formulations is diluted with water containing 0.05% by volume of a spreading agent (product name: Shindain (registered trademark)) so that the concentration of active ingredient may be 0.05 ppm, 0.2 ppm, 0.8 ppm, 3.1 ppm, 12.5 ppm, 50 ppm or 200 ppm. PRINCE flowable (Active ingredient: fipronil, manufactured by BASF Japan Ltd.) and KIRAPPU flowable (Active ingredient: ethiprole, manufactured by Bayer CropScience K.K.), which are commercial products, are diluted with water containing 0.05% by volume of a spreading agent (product name: Shindain (registered trademark)), respectively so that the concentration of active ingredient may be 0.05 ppm, 0.2 ppm, 0.8 ppm, 3.1 ppm, 12.5 ppm, 50 ppm or 200 ppm. The resulting dilution is sprayed to seedlings (at the 2.5-leaf stage) of rice planted in a container at a rate of 10 ml/seedling. […] Six days later, the number of surviving insects is observed, and a mortality rate of insect is calculated by the formula 2). […]

The subject of test [2] is small brown planthopper, susceptible line or reduced susceptible line. Kind of test: Test Example 20: spray on rice seedlings, mortality rate. The note with it: small brown planthopper 3rd-instar larvae on rice; 0.05-200 ppm; six days. How it is done: Natural pyrethrin or MX is formulated according to the method described in the Formulation Example 1. Similarly, flupyradifuron and flupyrimin are formulated according to the method described in the Formulation Example 1, respectively. Each of the above formulations is diluted with water containing 0.05% by volume of a spreading agent (product name: Shindain (registered trademark)) so that the concentration of active ingredient may be 0.05 ppm, 0.2 ppm, 0.8 ppm, 3.1 ppm, 12.5 ppm, 50 ppm or 200 ppm. Admire water dispersible granule (Active ingredient: imidacloprid, manufactured by Bayer CropScience K.K.), TREBON emulsifiable concentrate (Active ingredient: etofenprox, manufactured by Mitsui Chemicals Agro, Inc.), PRINCE flowable (Active ingredient: fipronil, manufactured by BASF Japan Ltd.), KIRAPPU flowable (Active ingredient: ethiprole, manufactured by Bayer CropScience K.K.), and APPLAUD flowable (Active ingredient: buprofezin, manufactured by NIHON NOHYAKU CO., LTD), which are commercial products, are diluted with water containing 0.05% by volume of a spreading agent (product name: Shindain (registered trademark)), respectively so that the concentration of active ingredient may be 0.05 ppm, 0.2 ppm, 0.8 ppm, 3.1 ppm, 12.5 ppm, 50 ppm or 200 ppm. The resulting dilution is sprayed to seedlings (at the 2.5-leaf stage) of rice (Oryza sativa) planted in a container at a rate of 10 ml/seedling. After that, 20 3rd-instar larvae of small brown planthopper of a susceptible line (a line that have been bred successively in Health & Crop Sciences Research Laboratory of Sumitomo Chemical Co., Ltd.) or small brown planthopper of a reduced susceptible line (a line that have been bred successively without selection after collecting in Nagasaki prefecture in 2016) are released thereto. Six days later, the number of surviving insects is observed, and a mortality rate of insect is calculated by the formula 2). On the other hand, rice is cultivated in the same way as in the treated plot, except that the dilution containing natural pyrethrin or MX is not sprayed (this is referred to as an untreated plot).

In test [3] the test system is cotton aphids, susceptible line or reduced susceptible line. Nature of the test: Test Example 17: spray on cucumber seedlings, control value. The note with it: 0.05-200 ppm, 10 ml/seedling, six days after spraying. An excerpt:
Natural pyrethrin or MX is formulated according to the method described in the Formulation Example 1. Similarly, triflumezopyrim, flupyradifuron, or flupyrimin is formulated according to the method described in the Formulation Example 1, respectively. Each dilution is obtained by diluting each of the above formulations with water containing 0.05% by volume of a spreading agent (product name: Shindain (registered trademark)) so that the concentration of active ingredient may be 0.05 ppm, 0.2 ppm, 0.8 ppm, 3.1 ppm, 12.5 ppm, 50 ppm or 200 ppm. Each dilution is obtained by diluting Admire wettable powder (Active ingredient: imidacloprid, manufactured by Bayer CropScience K.K.) and Actara water dispersible granule (Active ingredient: thiamethoxam, manufactured by Syngenta Japan K.K.), which are commercial products, with water containing 0.05% by volume of a spreading agent (product name: Shindain (registered trademark)) so that the concentration of active ingredient may be 0.05 ppm, 0.2 ppm, 0.8 ppm, 3.1 ppm, 12.5 ppm, 50 ppm or 200 ppm. Cucumber seedlings (at the second true leaf unfolding stage) planted in a container are inoculated with 30 cotton aphids (including all growth stages) which are a susceptible line (a line that have been bred successively in Health & Crop Sciences Research Laboratory of Sumitomo Chemical Co., Ltd.) or a reduced susceptible line (a line that have been bred successively without selection after collecting in Miyazaki prefecture in 2016). One day later, the resulting dilution is sprayed to the seedlings at a rate of 10 ml/seedling. On the other hand, cucumbers are cultivated in the same way as in the treated plot, except that the dilution containing natural pyrethrin or MX is not sprayed (this is referred to as an untreated plot). Six days after spraying, the number of surviving insects is observed, and a control value is calculated by formula 1).
Letters in the formula have the following meanings • Cb: The number of insects tested in the untreated plot • Cai: The number of surviving insects at the time of observation in the untreated plot • Tb: The number of tested insects in the treated plot • Tai: The number of surviving insects at the time of observation in the treated plot

Test [4] deals with brown planthopper, susceptible line or reduced susceptible line. Kind of test: Test Example 18: spray on rice seedlings, mortality rate. The conditions noted are these: brown planthopper 3rd-instar larvae on rice; 0.05-200 ppm; six days. The protocol: Natural pyrethrin or MX is formulated according to the method described in the Formulation Example 1. Similarly, flupyradifuron and flupyrimin are formulated according to the method described in the Formulation Example 4, respectively. Each of the above formulations is diluted with water containing 0.05% by volume of a spreading agent (product name: Shindain (registered trademark)) so that the concentration of active ingredient may be 0.05 ppm, 0.2 ppm, 0.8 ppm, 3.1 ppm, 12.5 ppm, 50 ppm or 200 ppm. Admire wettable powder (Active ingredient: imidacloprid, manufactured by Bayer CropScience K.K.), which is a commercial product, is diluted with water containing 0.05% by volume of a spreading agent (product name: Shindain (registered trademark)) so that the concentration of active ingredient may be 0.05 ppm, 0.2 ppm, 0.8 ppm, 3.1 ppm, 12.5 ppm, 50 ppm or 200 ppm. The resulting dilution is sprayed to seedlings (at the 2.5-leaf stage) of rice (Oryza sativa) planted in a container at a rate of 10 ml/seedling. After that, 20 3rd-instar larvae of brown planthopper of a susceptible line (a line that have been bred successively in Health & Crop Sciences Research Laboratory of Sumitomo Chemical Co., Ltd.) or brown planthopper of a reduced susceptible line (a line that have been bred successively without selection after collecting in Nagasaki prefecture in 2016) are released thereto. Six days later, the number of surviving insects is observed, and a mortality rate of insect is calculated by formula 2). On the other hand, rice is cultivated in the same way as in the treated plot, except that the dilution containing natural pyrethrin or MX is not sprayed (this is referred to as an untreated plot).

Test [5] has as its system diamondback moth, susceptible line or reduced susceptible line. Kind of test: Test Example 19: spray on cabbage seedlings, mortality rate. The conditions noted are these: diamondback moth 3rd-instar larvae on cabbage; 0.05-200 ppm; five days. The protocol:
Natural pyrethrin or MX is formulated according to the method described in the Formulation Example 1. Each of the above formulations is diluted with water containing 0.05% by volume of a spreading agent (product name: Shindain (registered trademark)) so that the concentration of active ingredient may be 0.05 ppm, 0.2 ppm, 0.8 ppm, 3.1 ppm, 12.5 ppm, 50 ppm or 200 ppm. Phoenix water dispersible granule (Active ingredient: flubendiamide, manufactured by NIHON NOHYAKU CO., LTD), PREVATHON flowable 5 (Active ingredient: chlorantraniliprole, manufactured by Nissan Chemical Corporation) and BENEVIA OD (Active ingredient: cyantraniliprole, manufactured by KUMIAI CHEMICAL INDUSTRY CO., LTD.), which are commercial products, are diluted with water containing 0.05% by volume of a spreading agent (product name: Shindain (registered trademark)), respectively so that the concentration of active ingredient may be 0.05 ppm, 0.2 ppm, 0.8 ppm, 3.1 ppm, 12.5 ppm, 50 ppm or 200 ppm. The resulting dilution is sprayed to seedlings (at the 3rd to 4th true leaf unfolding stage) of cabbage (Brassicae oleracea) planted in a container at a rate of 20 ml/seedling. After that, 10 3rd-instar larvae of diamondback moth of a susceptible line (a line that have been bred successively in Health & Crop Sciences Research Laboratory of Sumitomo Chemical Co., Ltd.) or diamondback moth of a reduced susceptible line (a line that have been bred successively without selection after collecting in Kumamoto prefecture in 2016) are released thereto. Five days later, the number of surviving insects is counted, and a mortality rate of insect is calculated by formula 3). On the other hand, cabbages are cultivated in the same way as in the treated plot, except that the dilution containing natural pyrethrin or MX is not sprayed (this is referred to as an untreated plot).

Take `N#Cc1nn(-c2c(Cl)cc(C(F)(F)F)cc2Cl)c(N)c1[S+]([O-])C(F)(F)F` (centres unmarked) [fipronil]: the “effect (mortality rate) on the reduced susceptible line compared with the susceptible line” value in test [1] and in test [2] was “low compared with that on the sensitive line” in each case. With `CC[S+]([O-])c1c(C#N)nn(-c2c(Cl)cc(C(F)(F)F)cc2Cl)c1N` (centres unmarked) [ethiprole], the “effect (mortality rate) on the reduced susceptible line compared with the susceptible line” value in test [1] and in test [2] was “low compared with that on the sensitive line” in each case.

In the case of `CN1COCN(Cc2cnc(Cl)s2)/C1=N\[N+](=O)[O-]` [thiamethoxam], the “effect (control value) on the reduced susceptible line compared with the susceptible line” value in test [3] is given as “low compared with that on the sensitive line”.

Consider `O=c1c(-c2cccc(C(F)(F)F)c2)c([O-])[n+](Cc2cncnc2)c2ccccn12` [triflumezopyrim], for which the “effect (control value) on the reduced susceptible line compared with the susceptible line” value in test [3] is reported as “low compared with that on the sensitive line”. On to `CC(C)N1C(=O)N(c2ccccc2)CS/C1=N\C(C)(C)C` [buprofezin], for which the “effect (mortality rate) on the reduced susceptible line compared with the susceptible line” value in test [2] is recorded as “low compared with that on the sensitive line”. `O=C1C=C(N(Cc2ccc(Cl)nc2)CC(F)F)CO1` [flupyradifuron]: the “effect (control value) on the reduced susceptible line compared with the susceptible line” value in test [3] was “low compared with that on the sensitive line”. Further, the “effect (mortality rate) on the reduced susceptible line compared with the susceptible line” value in test [2] and in test [4] was “low compared with that on the sensitive line” each time.

For the compound `O=[N+]([O-])NC1=NCCN1Cc1ccc(Cl)nc1` [imidacloprid], the “effect (control value) on the reduced susceptible line compared with the susceptible line” value in test [3] is reported as “low compared with that on the sensitive line”. Also, the “effect (mortality rate) on the reduced susceptible line compared with the susceptible line” value in test [2] and in test [4] was “low compared with that on the sensitive line” each time.

For `CNC(=O)c1cc(C#N)cc(C)c1NC(=O)c1cc(Br)nn1-c1ncccc1Cl` [cyantraniliprole], the “effect (mortality rate) on the reduced susceptible line compared with the susceptible line” value in test [5] is recorded as “low compared with that on the sensitive line”. Turning to `CCOc1ccc(C(C)(C)COCc2cccc(Oc3ccccc3)c2)cc1` [etofenprox], in test [2], the “effect (mortality rate) on the reduced susceptible line compared with the susceptible line” value is given as “low compared with that on the sensitive line”. `O=C(N=c1ccccn1Cc1ccc(Cl)nc1)C(F)(F)F` [flupyrimin]: the “effect (control value) on the reduced susceptible line compared with the susceptible line” value in test [3] is listed as “low compared with that on the sensitive line”. The “effect (mortality rate) on the reduced susceptible line compared with the susceptible line” value in test [2] and in test [4] was “low compared with that on the sensitive line” each time. On to `CNC(=O)c1cc(Cl)cc(C)c1NC(=O)c1cc(Br)nn1-c1ncccc1Cl` [chlorantraniliprole], for which the “effect (mortality rate) on the reduced susceptible line compared with the susceptible line” value in test [5] is “low compared with that on the sensitive line”. Take `Cc1cc(C(F)(C(F)(F)F)C(F)(F)F)ccc1NC(=O)c1cccc(I)c1C(=O)NC(C)(C)CS(C)(=O)=O` [flubendiamide]: the “effect (mortality rate) on the reduced susceptible line compared with the susceptible line” value in test [5] was “low compared with that on the sensitive line”.
